The source of these data is PubChem BioAssay (NCI).

What all share (test): inhibition of tumour cell growth, NCI panel, 48 h
In assay [1] the test system is K-562 leukemia.
Assay [2] deals with COLO 205 colon.
The test system of assay [3] is HCT-116 colon.
Assay [4] concerns SF-295 CNS.
Assay [5] has as its system MCF7 breast.
Assay [6] relates to UACC-257 melanoma.
The subject of assay [7] is UACC-62 melanoma.
For assay [8], the system named is CAKI-1 renal.
Assay [9] deals with NCI-H226 lung.
The test system of assay [10] is SF-539 CNS.

SMILES strings stand for the structures.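 These data come from cells grown in 96-well plates and exposed to compound for 48 hours at five concentrations. GI50: concentration for 50% inhibition of growth. TGI: total growth inhibition.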

For `CC(=O)N(C(C)=O)n1c(Cc2ccc(C)cc2)nn(C(C)=O)c1=O`, the TGI in assay [1], in assay [2], in assay [3], in assay [4], in assay [5] and in [6] was more than 100 µM throughout. The TGI in [7], in assay [8], in [9] and in assay [10] was more than 100 µM throughout.

Regarding `CC(=O)OC(C)(C)CCC(=O)[C@](C)(O)[C@H]1[C@H](O)C[C@@]2(C)[C@@H]3CC=C4C(C)=C(OC5OC(CO)C(O)C(O)C5O)C(=O)C[C@@H]4[C@]3(C)C(=O)C[C@]12C` (stereo partly drawn), the TGI in [1], in assay [2], in assay [3], in assay [4], in assay [5] and in [6] was more than 100 µM in each case. In addition, the TGI in assay [7], in assay [8], in assay [9] and in assay [10] was more than 100 µM in each case.

On to `COc1ccc(N=C2C(=Nc3ccc(OC)cc3)N(c3ccc(N(C)C)cc3)C(=S)N2c2ccc(OC)cc2)cc1`, for which the TGI was more than 100 µM in assay [1]; more than 100 µM in assay [2]; more than 100 µM in [3]; more than 100 µM in [5]; more than 58.1 µM in assay [6]; more than 100 µM in assay [7]. For the same molecule, the TGI in assay [8], in [9] and in [10] was more than 100 µM throughout.

In the case of `O=C1CS[C@@](CC(c2ccc(Cl)cc2)c2ccc(Cl)cc2)(c2ccc(Cl)cc2)N1`, the TGI is more than 100 µM in assay [1]; 17.9 µM in assay [2]; more than 100 µM in [3]; 47.5 µM in assay [4]; 26.4 µM in [5]; more than 100 µM in assay [6]. For the same molecule, the TGI is 63.1 µM in assay [7], more than 100 µM in assay [8], 42.2 µM in assay [9] and 64.4 µM in assay [10].

Regarding `CC1=CCC[C@H]2[C@](C)(CC3=CC(=O)C(Sc4ccccc4)=CC3=O)[C@@H](C)CC[C@]12C`, the GI50 in [1] is 19.5 µM; in assay [5], 22.6 µM. The TGI is 41.2 µM in [1]; 29.5 µM in assay [2]; 30.3 µM in assay [3]; 32.9 µM in assay [4]; 51.7 µM in assay [5]; 32.5 µM in assay [6]. Further, the TGI is 55.3 µM in assay [7], 36.7 µM in [8], 27.8 µM in assay [9] and 34.6 µM in assay [10].

Turning to `CN(C)CCNC(=O)c1ccc(Cl)c2cc3ccccc3nc12`, the TGI in [1] came to 12.3 µM; in assay [2], 1.64 µM; in [3], 5.48 µM; in [4] it was 4.33 µM; in assay [5] it was 3.58 µM; in assay [6], 2.64 µM. The TGI in assay [7] turned out to be 2.85 µM; in assay [8], 11.6 µM; in [9], 4.7 µM; in [10] it was 3.28 µM.

As for `O=C(c1ccc(O)c([N+](=O)[O-])c1)c1ccc(O)c([N+](=O)[O-])c1`, the TGI in [1], in assay [2], in assay [3], in [4], in assay [5] and in assay [6] was more than 100 µM each time. The TGI in assay [7], in assay [8], in assay [9] and in assay [10] was more than 100 µM each time.

As for `O=C(O)CNC(=O)c1ccc2cc(C(=O)N3CC(CCl)c4ccc([N+](=O)[O-])cc43)[nH]c2c1` (stereo not drawn), the TGI in assay [2], in assay [3], in assay [4], in assay [5], in assay [6] and in assay [7] was more than 100 µM each time. Moreover, the TGI in [8], in [9] and in assay [10] was more than 100 µM throughout.

On to `N#CC[N+]1(Cc2ccccn2)CCCC1`, for which the TGI in assay [1], in assay [2], in assay [3], in assay [4], in assay [5] and in assay [6] was more than 100 µM throughout. The TGI in assay [7], in assay [8], in assay [9] and in [10] was more than 100 µM each time.

As for `O=[N+]([O-])c1ccc(N2N=C(c3ccc4ccccc4c3O)CC2c2ccc(Cl)cc2)c([N+](=O)[O-])c1` (stereo not drawn), the TGI in assay [1] was 52 µM; in [2], more than 100 µM; in assay [3] it was more than 100 µM; in assay [4], more than 100 µM; in [5], more than 100 µM; in [6] it was more than 100 µM. Besides, the TGI in [7], in assay [8], in assay [9] and in assay [10] was more than 100 µM throughout.

As to `CCCN(CCC)C1CCc2c(ccc3cc[nH]c23)C1` (stereo not drawn), the TGI was more than 100 µM in [1]; more than 100 µM in assay [2]; more than 100 µM in [3]; more than 100 µM in assay [4]; more than 100 µM in assay [5]; 81.2 µM in assay [6]. Besides, the TGI in assay [7], in [8], in [9] and in [10] was more than 100 µM in each case.

Turning to `Cc1cc(N(CCC#N)CCC#N)ccc1/C=C1\SC(=S)NC1=O`, the TGI in [1], in assay [2], in assay [3], in assay [4], in [5] and in assay [6] was more than 100 µM throughout. For the same molecule, the TGI in assay [7], in [8], in [9] and in assay [10] was more than 100 µM throughout.

In the case of `COc1ccc(C2SCC(=O)N2NC(=O)C(C)Oc2ccccc2C)cc1` (stereo not drawn), the TGI in assay [1], in assay [2], in assay [3], in assay [4], in assay [5] and in assay [6] was more than 100 µM in each case. For the same molecule, the TGI in assay [7], in assay [8], in [9] and in assay [10] was more than 100 µM in each case.

On to `CCOC(=O)CCC(NC(=O)Cc1ccc(Oc2nc3ccccc3nc2-c2ccccc2)cc1)C(=O)OCC` (stereo not drawn), for which the TGI in [1], in assay [2], in assay [3], in [4], in assay [5] and in [6] was more than 100 µM throughout. Also, the TGI was more than 100 µM in [7], more than 100 µM in assay [8], 78.9 µM in assay [9] and more than 100 µM in assay [10].

In the case of `Nc1nc(=O)n(C2OC(CO)C(O)C2O)c2ncc(-c3ccc(-c4ccccc4)cc3)nc12` (stereo not drawn), the TGI in assay [1], in assay [2], in assay [3], in assay [4], in assay [5] and in assay [6] was more than 100 µM in each case. Besides, the TGI in assay [7] was more than 100 µM; in assay [8] it was more than 100 µM; in [9], 76.3 µM; in [10], more than 100 µM.

As for `CC12CCC(C(=Nc3cc(C(F)(F)F)cc(C(F)(F)F)c3)C1=O)C2(C)C` (stereo not drawn), the TGI is more than 100 µM in assay [1]; 34.1 µM in [2]; 99 µM in [3]; more than 100 µM in [4]; more than 100 µM in [5]; more than 100 µM in [6]. Besides, the TGI was more than 100 µM in [7], more than 100 µM in assay [8], more than 100 µM in assay [9] and 44.9 µM in [10].

On to `O=[N+]([O-])c1cccc(Cl)c1Oc1ccc(S(=O)(=O)/N=C(\NO)Nc2ccc(Cl)cc2)cc1`, for which the TGI amounted to 33.3 µM in assay [1]; 31 µM in [2]; 25 µM in assay [3]; 34.4 µM in assay [4]; 32.2 µM in [5]; 26 µM in assay [6]. Further, the TGI in assay [7] stood at 25.5 µM; in [8] it was 25.8 µM; in assay [9], 44.4 µM; in assay [10], 28.1 µM.

Take `COc1ccc2c(c1)CCN1CCCc3ccccc3C21` (stereo not drawn): the TGI was more than 100 µM in assay [1]; more than 100 µM in assay [2]; 92.8 µM in assay [3]; more than 100 µM in [4]; more than 100 µM in [5]; more than 100 µM in assay [6]. For the same molecule, the TGI in assay [7] was more than 100 µM; in [8], more than 100 µM; in assay [9], more than 100 µM; in assay [10], 34.7 µM.

Regarding `Cc1cc(O)cc(O)c1C(=O)O[C@]1(C)C(=O)C=C2C=C(/C=C/C(=O)O)OC=C2C1=O`, the TGI in assay [1], in [2], in assay [3], in assay [4], in assay [5] and in assay [6] was more than 100 µM throughout. In addition, the TGI in assay [7], in [8], in assay [9] and in [10] was more than 100 µM throughout.

Regarding `Cc1cc2oc(C)c(S(=O)(=O)NC(=O)Nc3ccc(Cl)cc3)c(=O)c2c(=O)o1`, the TGI in [1], in [2], in [3], in [4], in assay [5] and in [6] was more than 100 µM throughout. Further, the TGI in assay [7], in [8], in [9] and in assay [10] was more than 100 µM in each case.

As to `N=c1oc2ccccc2cc1-c1nc2ccccc2c(=O)[nH]1`, the TGI in [1], in assay [2], in [3], in assay [4], in assay [5] and in assay [6] was more than 100 µM throughout. Also, the TGI in assay [7], in assay [8], in [9] and in [10] was more than 100 µM each time.

Turning to `CCOC(=O)C(NC(=O)CC)(Nc1ccc(F)c(Cl)c1)C(F)(F)F` (stereo not drawn), the TGI in assay [1], in [2], in [3], in [4], in assay [5] and in assay [6] was more than 100 µM each time. Besides, the TGI in assay [7], in assay [8], in assay [9] and in assay [10] was more than 100 µM throughout.

For `COCC12CCC(OC)C34C5CC6(O)C(OC)CC(OC(C)=O)(C5C6OC(=O)c5ccccc5)C(C(OC)C13)C4N(C)C2` (stereo not drawn), the TGI in [2], in assay [3], in assay [4], in [5], in assay [6] and in assay [7] was more than 100 µM each time. The TGI in assay [8], in [9] and in [10] was more than 100 µM throughout.

Consider `CCCCCCCCCCCCCCCCCC(=O)Nc1ccn(C2CCC(COP(=O)(O)O)O2)c(=O)n1` (stereo not drawn), for which the TGI in assay [1], in [2], in assay [3], in [4], in assay [5] and in assay [6] was more than 100 µM throughout. The TGI in assay [7], in assay [8], in assay [9] and in assay [10] was more than 100 µM each time.

With `COC12C=CC(C=C1C#N)CC2` (stereo not drawn) (tested in a mixture with another compound), the TGI in assay [1], in assay [2], in [3], in [4], in [5] and in assay [6] was more than 100 µM each time. In addition, the TGI in assay [7], in assay [8], in assay [9] and in [10] was more than 100 µM throughout.

Consider `CC(=O)OCCCCn1cc(Cn2ccc(=O)n(Cc3cn(CCCCOC(C)=O)nn3)c2=O)nn1`, for which the TGI in [2], in assay [3], in assay [4], in assay [5], in [6] and in assay [7] was more than 100 µM throughout. Further, the TGI in assay [8], in [9] and in [10] was more than 100 µM each time.
